{"source": "patent US9580444B2", "about": "“Polycyclic pyrazolinone derivative and herbicide comprising same as effective component thereof” (priority 2013, dated 2017)"}
{"system": "Amaranthus viridis (green amaranthus)", "assay": "Test Example-4: herbicidal effect by a foliage treatment after weeds are generated under upland field conditions", "format": "in vivo", "conditions": "500 g a.i/ha, foliage treatment after emergence, about 14 days after treatment, score 0-5", "text": "(§1) Using the formulation prepared according to the methods described above, the herbicidal effect of the bicyclic pyrazolinone derivative of the invention according to the methods shown in Test Examples below was examined. The herbicidal effect with respect to the test weeds or the phytotoxicity with respect to the test crops was examined according to the following criteria, and evaluated in six stage scores of 0 to 5. A vat having an area of 65 cm^2 and a depth of 2 cm was filled with upland soil, then, seeds of Amaranthus viridis (green amaranthus), Abutilon theophrasti (velvetleaf), Chenopodium album (common lambsquarters), […]. While watering was suitably performed on there, the seeds were grown for 14 days. A wettable powder or an emulsifiable concentrate of the compound of the present invention prepared according to Formulation Example was diluted, and a spray treatment was uniformly performed on the foliage portion of the plant so as to be a predetermined dosage in the amount of water of 4000 L per hectare. The herbicidal effect with respect to the test weeds and the phytotoxicity with respect to corn about 14 days after the treatment were evaluated according to the evaluation criteria in six stages of 0 to 5 described above."}
{"smiles": "C=CCOc1cc(C)ccc1Oc1cc(-c2c(Cl)n3n(c2=O)CCCC3)c(F)cc1Cl", "note": "[Example 3-42]", "Herbicidal effect Amaranthus viridis": "5 (Herbicidal effect/phytotoxicity was 90% or greater)"}
{"smiles": "CCCOC(=CC(=O)OCC)COc1cc(-c2c(Cl)n3n(c2=O)CCCC3)c(F)cc1Cl", "note": "(mixture of isomers) [Example 2-20]", "Herbicidal effect Amaranthus viridis": "5 (Herbicidal effect/phytotoxicity was 90% or greater)"}
{"smiles": "O=c1c(-c2cc(NS(=O)(=O)c3ccccc3Cl)c(Cl)cc2F)c(Cl)n2n1CCCC2", "note": "[Example 5-63]", "Herbicidal effect Amaranthus viridis": "5 (Herbicidal effect/phytotoxicity was 90% or greater)"}
{"smiles": "CC1(COc2cc(-c3c(Cl)n4n(c3=O)CCCC4)c(F)cc2Cl)CC(c2ccccc2Cl)=NO1", "note": "(centres unmarked) [Example 4-5]", "Herbicidal effect Amaranthus viridis": "5 (Herbicidal effect/phytotoxicity was 90% or greater)"}
{"smiles": "C#CCOc1cc(F)ccc1Oc1cc(-c2c(Cl)n3n(c2=O)CCCC3)c(F)cc1Cl", "note": "[Example 3-35]", "Herbicidal effect Amaranthus viridis": "5 (Herbicidal effect/phytotoxicity was 90% or greater)"}
{"smiles": "CCOC(=O)C=C(COc1cc(-c2c(Cl)n3n(c2=O)CCCC3)c(F)cc1Cl)OC", "note": "(mixture of isomers) [Example 2-14]", "Herbicidal effect Amaranthus viridis": "5 (Herbicidal effect/phytotoxicity was 90% or greater)"}
{"smiles": "C=C(C)COc1ccccc1Oc1cc(-c2c(Cl)n3n(c2=O)CCCC3)c(F)cc1Cl", "note": "[Example 3-22]", "Herbicidal effect Amaranthus viridis": "5 (Herbicidal effect/phytotoxicity was 90% or greater)"}
{"smiles": "C=C(C)COC(=O)C=C(COc1cc(-c2c(Cl)n3n(c2=O)CCCC3)c(F)cc1Cl)OCC", "note": "[Example 2-30]", "Herbicidal effect Amaranthus viridis": "5 (Herbicidal effect/phytotoxicity was 90% or greater)"}
{"smiles": "COc1cc(C)ccc1Oc1cc(-c2c(Cl)n3n(c2=O)CCCC3)c(F)cc1Cl", "note": "[Example 3-41]", "Herbicidal effect Amaranthus viridis": "5 (Herbicidal effect/phytotoxicity was 90% or greater)"}
{"smiles": "Nc1cc(-c2c(Cl)n3n(c2=O)CCCC3)c(F)cc1Cl", "note": "[Example 5-11]", "Herbicidal effect Amaranthus viridis": "5 (Herbicidal effect/phytotoxicity was 90% or greater)"}
{"smiles": "C=CCOc1cc(-c2c(Cl)n3n(c2=O)CCCC3)ccc1Cl", "note": "[Example 1-59]", "Herbicidal effect Amaranthus viridis": "5 (Herbicidal effect/phytotoxicity was 90% or greater)"}
{"system": "Abutilon theophrasti (velvetleaf)", "assay": "Test Example-4: herbicidal effect by a foliage treatment after weeds are generated under upland field conditions", "format": "in vivo", "conditions": "500 g a.i/ha, foliage treatment after emergence, about 14 days after treatment, score 0-5", "text": "as §1"}
{"smiles": "C=CCOc1cc(C)ccc1Oc1cc(-c2c(Cl)n3n(c2=O)CCCC3)c(F)cc1Cl", "note": "[Example 3-42]", "Herbicidal effect Abutilon theophrast": "5 (Herbicidal effect/phytotoxicity was 90% or greater)"}
{"smiles": "CCCOC(=CC(=O)OCC)COc1cc(-c2c(Cl)n3n(c2=O)CCCC3)c(F)cc1Cl", "note": "(mixture of isomers) [Example 2-20]", "Herbicidal effect Abutilon theophrast": "5 (Herbicidal effect/phytotoxicity was 90% or greater)"}
{"smiles": "O=c1c(-c2cc(NS(=O)(=O)c3ccccc3Cl)c(Cl)cc2F)c(Cl)n2n1CCCC2", "note": "[Example 5-63]", "Herbicidal effect Abutilon theophrast": "5 (Herbicidal effect/phytotoxicity was 90% or greater)"}
{"smiles": "CC1(COc2cc(-c3c(Cl)n4n(c3=O)CCCC4)c(F)cc2Cl)CC(c2ccccc2Cl)=NO1", "note": "(centres unmarked) [Example 4-5]", "Herbicidal effect Abutilon theophrast": "5 (Herbicidal effect/phytotoxicity was 90% or greater)"}
{"smiles": "C#CCOc1cc(F)ccc1Oc1cc(-c2c(Cl)n3n(c2=O)CCCC3)c(F)cc1Cl", "note": "[Example 3-35]", "Herbicidal effect Abutilon theophrast": "5 (Herbicidal effect/phytotoxicity was 90% or greater)"}
{"smiles": "CCOC(=O)C=C(COc1cc(-c2c(Cl)n3n(c2=O)CCCC3)c(F)cc1Cl)OC", "note": "(mixture of isomers) [Example 2-14]", "Herbicidal effect Abutilon theophrast": "5 (Herbicidal effect/phytotoxicity was 90% or greater)"}
{"smiles": "C=C(C)COc1ccccc1Oc1cc(-c2c(Cl)n3n(c2=O)CCCC3)c(F)cc1Cl", "note": "[Example 3-22]", "Herbicidal effect Abutilon theophrast": "5 (Herbicidal effect/phytotoxicity was 90% or greater)"}
{"smiles": "C=C(C)COC(=O)C=C(COc1cc(-c2c(Cl)n3n(c2=O)CCCC3)c(F)cc1Cl)OCC", "note": "[Example 2-30]", "Herbicidal effect Abutilon theophrast": "5 (Herbicidal effect/phytotoxicity was 90% or greater)"}
{"smiles": "COc1cc(C)ccc1Oc1cc(-c2c(Cl)n3n(c2=O)CCCC3)c(F)cc1Cl", "note": "[Example 3-41]", "Herbicidal effect Abutilon theophrast": "5 (Herbicidal effect/phytotoxicity was 90% or greater)"}
{"smiles": "Nc1cc(-c2c(Cl)n3n(c2=O)CCCC3)c(F)cc1Cl", "note": "[Example 5-11]", "Herbicidal effect Abutilon theophrast": "5 (Herbicidal effect/phytotoxicity was 90% or greater)"}
{"smiles": "C=CCOc1cc(-c2c(Cl)n3n(c2=O)CCCC3)ccc1Cl", "note": "[Example 1-59]", "Herbicidal effect Abutilon theophrast": "5 (Herbicidal effect/phytotoxicity was 90% or greater)"}
{"system": "Chenopodium album (common lambsquarters)", "assay": "Test Example-4: herbicidal effect by a foliage treatment after weeds are generated under upland field conditions", "format": "in vivo", "conditions": "500 g a.i/ha, foliage treatment after emergence, about 14 days after treatment, score 0-5", "text": "as §1"}
{"smiles": "C=CCOc1cc(C)ccc1Oc1cc(-c2c(Cl)n3n(c2=O)CCCC3)c(F)cc1Cl", "note": "[Example 3-42]", "Herbicidal effect Chenopodium album": "5 (Herbicidal effect/phytotoxicity was 90% or greater)"}
{"smiles": "CCCOC(=CC(=O)OCC)COc1cc(-c2c(Cl)n3n(c2=O)CCCC3)c(F)cc1Cl", "note": "(mixture of isomers) [Example 2-20]", "Herbicidal effect Chenopodium album": "5 (Herbicidal effect/phytotoxicity was 90% or greater)"}
{"smiles": "O=c1c(-c2cc(NS(=O)(=O)c3ccccc3Cl)c(Cl)cc2F)c(Cl)n2n1CCCC2", "note": "[Example 5-63]", "Herbicidal effect Chenopodium album": "5 (Herbicidal effect/phytotoxicity was 90% or greater)"}
{"smiles": "CC1(COc2cc(-c3c(Cl)n4n(c3=O)CCCC4)c(F)cc2Cl)CC(c2ccccc2Cl)=NO1", "note": "(centres unmarked) [Example 4-5]", "Herbicidal effect Chenopodium album": "5 (Herbicidal effect/phytotoxicity was 90% or greater)"}
{"smiles": "C#CCOc1cc(F)ccc1Oc1cc(-c2c(Cl)n3n(c2=O)CCCC3)c(F)cc1Cl", "note": "[Example 3-35]", "Herbicidal effect Chenopodium album": "5 (Herbicidal effect/phytotoxicity was 90% or greater)"}
{"smiles": "CCOC(=O)C=C(COc1cc(-c2c(Cl)n3n(c2=O)CCCC3)c(F)cc1Cl)OC", "note": "(mixture of isomers) [Example 2-14]", "Herbicidal effect Chenopodium album": "5 (Herbicidal effect/phytotoxicity was 90% or greater)"}
{"smiles": "C=C(C)COc1ccccc1Oc1cc(-c2c(Cl)n3n(c2=O)CCCC3)c(F)cc1Cl", "note": "[Example 3-22]", "Herbicidal effect Chenopodium album": "5 (Herbicidal effect/phytotoxicity was 90% or greater)"}
{"smiles": "C=C(C)COC(=O)C=C(COc1cc(-c2c(Cl)n3n(c2=O)CCCC3)c(F)cc1Cl)OCC", "note": "[Example 2-30]", "Herbicidal effect Chenopodium album": "5 (Herbicidal effect/phytotoxicity was 90% or greater)"}
{"smiles": "COc1cc(C)ccc1Oc1cc(-c2c(Cl)n3n(c2=O)CCCC3)c(F)cc1Cl", "note": "[Example 3-41]", "Herbicidal effect Chenopodium album": "5 (Herbicidal effect/phytotoxicity was 90% or greater)"}
{"smiles": "Nc1cc(-c2c(Cl)n3n(c2=O)CCCC3)c(F)cc1Cl", "note": "[Example 5-11]", "Herbicidal effect Chenopodium album": "5 (Herbicidal effect/phytotoxicity was 90% or greater)"}
{"smiles": "C=CCOc1cc(-c2c(Cl)n3n(c2=O)CCCC3)ccc1Cl", "note": "[Example 1-59]", "Herbicidal effect Chenopodium album": "5 (Herbicidal effect/phytotoxicity was 90% or greater)"}
{"system": "corn", "assay": "Test Example-4: phytotoxicity by a foliage treatment after weeds are generated under upland field conditions", "format": "in vivo", "conditions": "500 g a.i/ha, foliage treatment after emergence, about 14 days after treatment, score 0-5", "text": "as §1"}
{"smiles": "C=CCOc1cc(C)ccc1Oc1cc(-c2c(Cl)n3n(c2=O)CCCC3)c(F)cc1Cl", "note": "[Example 3-42]", "Phytotoxicity Corn": "0 (Herbicidal effect/phytotoxicity was 0% to 10%)"}
{"smiles": "CCCOC(=CC(=O)OCC)COc1cc(-c2c(Cl)n3n(c2=O)CCCC3)c(F)cc1Cl", "note": "(mixture of isomers) [Example 2-20]", "Phytotoxicity Corn": "0 (Herbicidal effect/phytotoxicity was 0% to 10%)"}
{"smiles": "O=c1c(-c2cc(NS(=O)(=O)c3ccccc3Cl)c(Cl)cc2F)c(Cl)n2n1CCCC2", "note": "[Example 5-63]", "Phytotoxicity Corn": "0 (Herbicidal effect/phytotoxicity was 0% to 10%)"}
{"smiles": "CC1(COc2cc(-c3c(Cl)n4n(c3=O)CCCC4)c(F)cc2Cl)CC(c2ccccc2Cl)=NO1", "note": "(centres unmarked) [Example 4-5]", "Phytotoxicity Corn": "1 (Herbicidal effect/phytotoxicity was 10% to 30%)"}
{"smiles": "C#CCOc1cc(F)ccc1Oc1cc(-c2c(Cl)n3n(c2=O)CCCC3)c(F)cc1Cl", "note": "[Example 3-35]", "Phytotoxicity Corn": "1 (Herbicidal effect/phytotoxicity was 10% to 30%)"}
{"smiles": "CCOC(=O)C=C(COc1cc(-c2c(Cl)n3n(c2=O)CCCC3)c(F)cc1Cl)OC", "note": "(mixture of isomers) [Example 2-14]", "Phytotoxicity Corn": "0 (Herbicidal effect/phytotoxicity was 0% to 10%)"}
{"smiles": "C=C(C)COc1ccccc1Oc1cc(-c2c(Cl)n3n(c2=O)CCCC3)c(F)cc1Cl", "note": "[Example 3-22]", "Phytotoxicity Corn": "0 (Herbicidal effect/phytotoxicity was 0% to 10%)"}
{"smiles": "C=C(C)COC(=O)C=C(COc1cc(-c2c(Cl)n3n(c2=O)CCCC3)c(F)cc1Cl)OCC", "note": "[Example 2-30]", "Phytotoxicity Corn": "0 (Herbicidal effect/phytotoxicity was 0% to 10%)"}
{"smiles": "COc1cc(C)ccc1Oc1cc(-c2c(Cl)n3n(c2=O)CCCC3)c(F)cc1Cl", "note": "[Example 3-41]", "Phytotoxicity Corn": "1 (Herbicidal effect/phytotoxicity was 10% to 30%)"}
{"smiles": "Nc1cc(-c2c(Cl)n3n(c2=O)CCCC3)c(F)cc1Cl", "note": "[Example 5-11]", "Phytotoxicity Corn": "1 (Herbicidal effect/phytotoxicity was 10% to 30%)"}
{"smiles": "C=CCOc1cc(-c2c(Cl)n3n(c2=O)CCCC3)ccc1Cl", "note": "[Example 1-59]", "Phytotoxicity Corn": "0 (Herbicidal effect/phytotoxicity was 0% to 10%)"}
